According to patent EP4341264B1, “PYRROLOPIRIMIDINE DERIVATIVES AND THEIR USE IN THE TREATMENT OF LEISHMANIASIS” (Drugs for Neglected Diseases Initiative, priority 2021, dated 2022):
Like-named read-outs stand apart in the source and are kept apart here.

Experiments:
L. infantum = assay: VL hamster model in vivo efficacy (reduction of parasite load vs. control); details: 5 days
Protocol: The in vivo efficacy of the compounds C1, C3, C4, and miltefosine was evaluated in a VL hamster model infected with L. infantum. The in vivo studies were performed in accordance with the methods described by Van den Kerkhof et al. [IJP: Drugs and Drug Resistance, 2018, 8, Issue 1, 81-86]. Following treatment, the reduction of parasite load vs. control was determined in different body compartments (liver, spleen, and bone marrow) with results presented in Table 4. Table 4. Hamster in vivo efficacy

[1] = tested on: L. infantum (LEM3323-cl4 PMM); assay: Leishmania clinical isolate panel screen (drug-susceptibility assay in infected macrophages); assay type: cell-based; details: Macrophage, read-out: IC50 Mean ± SEM
Protocol: (§1) Female Swiss mice (BW ~20 g) were purchased from a commercial source (Janvier France) and kept in quarantine for 1 week. The animals were housed in group and drinking water was available ad libitum. To harvest peritoneal macrophages, the mice were first stimulated by intraperitoneal injection of 1 mL of starch solution (2% in PBS). After 24 h, macrophages were collected in RPMI-1640 supplemented with 5% iFCS, 2% penicillin-streptomycin and 1% L-glutamine by peritoneal lavage and immediately distributed in a 96-well plate at a concentration of 30,000 cells/well. The cells were incubated for 24 h at 37°C and 5 % CO2 to allow cell attachment.
(§2) Strains of L. donovani, L. infantum, L. major, L. tropica, L. guyanensis and L. panamensis were selected based on their intrinsic susceptibility to the commonly used reference drugs and their geographic distribution. All strains were cultivated in HOMEM promastigote medium and sub-cultured twice weekly. Passage numbers were kept as low as possible to avoid loss of virulence. For infection of the macrophages, metacyclic promastigote cultures were examined light microscopically for the abundant presence of metacyclic promastigotes. Upon counting, promastigotes were centrifuged and diluted in RPMI-1640 to the desired concentration. The infection ratio varied based on the ability of the strain to adequately infect the host cells and ranged from 5 to 20 promastigotes per macrophage. Macrophages were infected by adding 100 µL promastigote suspension per well onto the macrophages. When ex vivo amastigotes were available (only for two lab strains), macrophages were infected at a ratio of 10/1.
(§3) Stock solutions of the DNDi lead compounds were prepared in 100% DMSO at 20 mM and robotically further diluted in water. Miltefosine (MIL) was included as reference and formulated in water at a concentration of 20 mM. The medium was discarded from the plates to remove any residual non-internalized promastigotes and replaced by fresh RPMI-1640 medium supplemented with iFBS, P/S and L-glutamine (as described above). Next, a 2-fold dilution series of each lead compound was added to the plate with 64 µM as the highest in test-concentration for the DNDi leads and 40 µM for MIL. The 96-well plates were further incubated at 34-37°C and 5% CO2. For staining, the culture medium was discarded, and the plates were left to dry for 2-4 hours. The cells were then fixated with methanol for 10 minutes and stained with a 1/5 Giemsa dilution in water for 15 minutes. The percentage infection-inhibition compared to a positive control (untreated infected macrophages) was microscopically determined and used to calculate the IC50 and IC90 values.

[2] = tested on: L. guyanensis (MHOM/PE/02/PER 054/0); assay: as above; assay type: cell-based; details: Macrophage, read-out: IC50 Mean ± SEM
Protocol: as §1, §2, §3

[3] = tested on: L. infantum (MHOM/FR/96/LEM3323-cl4); assay: as above; assay type: cell-based; details: Macrophage, read-out: IC50 Mean ± SEM
Protocol: as §1, §2, §3

[4] = tested on: L. infantum (MHOM/ES/2016/LLM-2346); assay: as above; assay type: cell-based; details: Macrophage, read-out: IC50 Mean ± SEM
Protocol: as §1, §2, §3

[5] = tested on: L. donovani (MHOM/NP/03/BPK275/0-cl18); assay: as above; assay type: cell-based; details: Macrophage, read-out: IC50 Mean ± SEM
Protocol: as §1, §2, §3

[6] = tested on: L. infantum (LEM3323-cl4 MIL); assay: as above; assay type: cell-based; details: Macrophage, read-out: IC50 Mean ± SEM
Protocol: as §1, §2, §3

[7] = tested on: L. donovani (MHOM/ NP/2003/BPK282/0-cl4); assay: as above; assay type: cell-based; details: Macrophage, read-out: IC50 Mean ± SEM
Protocol: as §1, §2, §3

[8] = tested on: L. major (MHOM/SA/85/JISH118); assay: as above; assay type: cell-based; details: Macrophage, read-out: IC50 Mean ± SEM
Protocol: as §1, §2, §3

[9] = tested on: L. tropica (MHOM/AF/2015/HTD7); assay: as above; assay type: cell-based; details: Macrophage, read-out: IC50 Mean ± SEM
Protocol: as §1, §2, §3

[10] = tested on: L. panamensis (MHOM/PA/71/LS94); assay: as above; assay type: cell-based; details: Macrophage, read-out: IC50 Mean ± SEM
Protocol: as §1, §2, §3

[11] = tested on: L. infantum (MHOM/BR/2007/WC (L3015)); assay: as above; assay type: cell-based; details: Macrophage, read-out: IC50 Mean ± SEM
Protocol: as §1, §2, §3

[12] = tested on: L. major (MHOM/IL/81/Friedlin); assay: as above; assay type: cell-based; details: Macrophage, read-out: IC50 Mean ± SEM
Protocol: as §1, §2, §3

[13] = tested on: L. donovani (MHOM/ET/67/L82); assay: Intracellular amastigote susceptibility assay (primary peritoneal mouse macrophages); assay type: cell-based; details: Leishmania donovani, Macrophage; L. donovani (MHOM/ET/67/L82) amastigotes in mouse macrophages, 96-h incubation
Protocol: (§4) To obtain primary peritoneal macrophages, Swiss mice were stimulated by intraperitoneal injection of 1 mL 2% starch in PBS 48 h prior to cell collection. Animals were euthanized with a CO2 overdose and upon removal of the skin, 10 mL of RPMI-1640 (Life Technologies) was injected into the peritoneal cavity to collect the macrophages that were then seeded into 96-well plates at a final concentration of 30,000 cells/well in 100 µL of RPMI-1640 macrophage medium, supplemented with 5% iFCS, 2% penicillin/streptomycin and 1% L-glutamine (Life technologies). After 24 h, the cells were infected with spleen derived L. infantum (MHOM/MA(BE)/67/ITMAP263) or L. donovani (MHOM/ET/67/L82) amastigotes obtained from heavily infected donor hamsters. The amastigotes were purified using two centrifugation steps and diluted to obtain an infection ratio of 5:1 in RPMI-1640 cell culture medium. After incubation for 2 h, compound dilutions were added. Drug activity was evaluated after a 96-h incubation period without washing of the cells and without renewal of the drugged culture medium. Cells were stained with Giemsa for microscopic evaluation of cellular amastigote burdens. Percentage reduction compared to the burdens in the infected non-treated control wells was used as a measure for drug activity.

[14] = tested on: L. infantum (MHOM/MA/67/ITMAP263); assay: as above; assay type: cell-based; details: Leishmania infantum, Macrophage; L. infantum (MHOM/MA/67/ITMAP263) amastigotes in mouse macrophages, 96-h incubation
Protocol: as §4

[15] = tested on: T. cruzi infected NIH-3T3 murine fibroblasts; details: Peña et al. Sci. Rep. 2015, 5; cited from earlier work
[16] = tested on: L. donovani parasites in infected human macrophages; details: Peña et al. Sci. Rep. 2015, 5; cited from earlier work
[17] = Cutaneous leishmaniasis, L. guyanensis (MHOM/PE/02/PER 054/0), Miltefosine: mean only
[18] = Visceral leishmaniasis, L. infantum (MHOM/FR/96/LEM3323-cl4), Miltefosine: mean only
[19] = Visceral leishmaniasis, L. infantum (MHOM/ES/2016/LLM-2346), Miltefosine: mean only
[20] = Visceral leishmaniasis, L. donovani (MHOM/NP/03/BPK275/0-cl18), Miltefosine: mean only
[21] = Visceral leishmaniasis, L. donovani (MHOM/ NP/2003/BPK282/0-cl4), Miltefosine: mean only
[22] = Cutaneous leishmaniasis, L. major (MHOM/SA/85/JISH118), Miltefosine: mean only
[23] = Cutaneous leishmaniasis, L. tropica (MHOM/AF/2015/HTD7), Miltefosine: mean only
[24] = Cutaneous leishmaniasis, L. panamensis (MHOM/PA/71/LS94), Miltefosine: mean only
[25] = Visceral leishmaniasis, L. infantum (MHOM/BR/2007/WC (L3015)), Miltefosine: mean only
[26] = Cutaneous leishmaniasis, L. major (MHOM/IL/81/Friedlin), Miltefosine: mean only

Row | SMILES | IC50 [1] [nM] | IC50 [2, 17] [nM] | IC50 [3, 18] [nM] | IC50 [4, 19] [nM] | IC50 [5, 20] [nM] | IC50 [6] [nM] | IC50 [7, 21] [nM] | IC50 [8, 22] [nM] | IC50 [9, 23] [nM] | IC50 [10, 24] [nM] | IC50 [11, 25] [nM] | IC50 [12, 26] [nM] | IC50 [13] [nM] | IC90 [13] [nM] | IC50 [14] [nM] | IC90 [14] [nM] | % Parasite reduction Bone marrow (L. infantum; 25 mg/kg qd) [%] | % Parasite reduction Liver (L. infantum; 25 mg/kg qd) [%] | % Parasite reduction Spleen (L. infantum; 25 mg/kg qd) [%] | further results
1 | COc1cc(C#N)ccc1-c1c(C)[nH]c2nc(N)nc(C)c12 [Compound C1, 4-(2-amino-4,6-dimethyl-7H-pyrrolo[2,3-d]pyrimidin-5-yl)-3-methoxybenzonitrile] | 380 ± 70 | 60 ± 30 | 200 ± 80 | 690 ± 190 | 150 ± 20 | 350 ± 80 | 100 ± 170 | 3000 ± 1050 | 1490 ± 240 | 170 ± 110 | 440 ± 240 | 500 ± 170 | 1390 | 2320 | 870 | 2900 | – | – | – | % Parasite reduction Bone marrow (L. infantum; 25 mg/kg bid): 98.9%; % Parasite reduction Liver (L. infantum; 25 mg/kg bid): 95.9%; % Parasite reduction Spleen (L. infantum; 25 mg/kg bid): 95.2%; % Parasite reduction Bone marrow (L. infantum; 50 mg/kg bid): 97.4%; % Parasite reduction Liver (L. infantum; 50 mg/kg bid): 99.2%; % Parasite reduction Spleen (L. infantum; 50 mg/kg bid): 95.3%
2 | Cc1[nH]c2nc(N)nc(C)c2c1-c1ccc(F)c2c1OCO2 [Compound C2, 5-(7-fluoro-1,3-benzodioxol-4-yl)-4,6-dimethyl-7H-pyrrolo[2,3-d]pyrimidin-2-amine] | – | – | – | – | – | – | – | – | – | – | – | – | 140 | 650 | 150 | 330 | – | – | – | –
3 | COc1nc(OCC(F)(F)F)cnc1-c1c(C)[nH]c2nc(N)nc(C)c12 [Compound C3, 5-[3-methoxy-5-(2,2,2-trifluoroethoxy)pyrazin-2-yl]-4,6-dimethyl-7H-pyrrolo[2,3-d]pyrimidin-2-amine] | 540 ± 50 | 120 ± 10 | 330 ± 80 | 690 ± 360 | 230 ± 100 | 400 ± 140 | 320 ± 160 | 6640 ± 610 | 2380 ± 420 | 260 ± 130 | 820 ± 330 | 830 ± 340 | 1570 | 6480 | 1580 | 3480 | 86.7 | 98.4 | 99.0 | % Parasite reduction Bone marrow (L. infantum; 12.5 mg/kg qd): 89.9%; % Parasite reduction Liver (L. infantum; 12.5 mg/kg qd): 96.1%; % Parasite reduction Spleen (L. infantum; 12.5 mg/kg qd): 98.4%
4 | Cc1[nH]c2nc(N)nc(C)c2c1-c1ccc(C#N)c2c1OCO2 [Compound C4, 7-(2-amino-4,6-dimethyl-7H-pyrrolo[2,3-d]pyrimidin-5-yl)-1,3-benzodioxole-4-carbonitrile] | 60 ± 20 | – | – | – | – | 70 ± 10 | – | – | – | – | – | – | 160 | 410 | 150 | 370 | 99.4 | 99.6 | 99.9 | % Parasite reduction Bone marrow (L. infantum; 6.25 mg/kg bid): 93.6%; % Parasite reduction Liver (L. infantum; 6.25 mg/kg bid): 96.9%; % Parasite reduction Spleen (L. infantum; 6.25 mg/kg bid): 97.6%; % Parasite reduction Bone marrow (L. infantum; 12.5 mg/kg bid): 99.6%; % Parasite reduction Liver (L. infantum; 12.5 mg/kg bid): 99.7%; % Parasite reduction Spleen (L. infantum; 12.5 mg/kg bid): 99.9%; % Parasite reduction Bone marrow (L. infantum; 50 mg/kg qd): 99.9%; % Parasite reduction Liver (L. infantum; 50 mg/kg qd): 99.7%; % Parasite reduction Spleen (L. infantum; 50 mg/kg qd): 99.9%; IC50 [2]: 10 nM; IC50 [3]: 50 ± 10 nM; IC50 [4]: 170 ± 70 nM; IC50 [5]: 40 ± 10 nM; IC50 [7]: 30 ± 30 nM; IC50 [8]: 560 ± 260 nM; IC50 [9]: 300 ± 90 nM; IC50 [10]: 30 ± 10 nM; IC50 [11]: 50 ± 30 nM; IC50 [12]: 80 ± 20 nM
5 | COc1ccccc1-c1c(C)[nH]c2nc(N)nc(C)c12 [TCMDC-143610] | – | – | – | – | – | – | – | – | – | – | – | – | – | – | – | – | – | – | – | pIC50 [15]: 6.6; pIC50 [16]: 4.6
